Test results published in patent US20260033491A1, “FUNGAL SPORE FORMULATIONS INCLUDING CARRIER FLUIDS” (priority 2018, published 2026).

Assays:
I. fumosorosea spores = assay: Spore viability (germination rate) of Isaria fumosorosea spores dispersed in fluid and stored at 30° C.; type: cell-based; conditions: I. fumosorosea spores in fluid; for spore viability [%] after 1 m (27 d) / spore viability [%] after 7 m (210 d): storage at 30° C.
Protocol: (§1) 1.5 g of I. fumosorosea pure spore powder were transferred into a formulation vessel (IKA Type DT-20 mixing vessel with dispersion tool for Ultra Turrax) using a sterile spoon. 13.5 mL of fluid were added into the respective formulation vessel and dispersed using ultra turrax tube drive control for 1 min at 3000 rpm; change direction after 30 sec. After this 2.8 mL were transferred in four sample bottles (Wheaton Serum vial, Type I) leaving little headspace and closed tight using crimpneck caps (Macherey—Nagel type N 13) Afterwards all sample bottles were transferred to an incubator set at 30° C. and stored for a given time.
(§2) In regular intervals a sample was retrieved from the storage location and analyzed for spore viability. Therefore the original samples were thoroughly homogenized. Aliquots of 0.25 g or 250 μL of each sample were transferred into 50 mL falcon tubes. The tubes were filled up to 25 g using a sterile aqueous solution containing 2% Tween 80 and homogenized by vortexing to achieve the first dilution step (1:100 dilution). This dilution was used for further dilution and spotting on agar.
Not all samples mixed well or mixed at all in 2% Tween 80. For these samples, an alternative dispersion/dilution method was applied where the oil phase is stripped from the spores first: 0.25 g or 250 μL of sample were weighted into a 2 mL Eppendorf tube, and 0.5 mL of 2% Tween 80 was added, and the mixture was transferred into an Eppendorf centrifuge where it was centrifuged for 1 min at 10.000 rpm. The supernatant (=upper oily phase) was discarded by using a pipette. Afterwards 250 μL of Breakthru S 240 were added and the spores were well dispersed. 250 μL or 0.25 g of each sample were transferred into a sterile 50 mL Falcon tube. The tubes were filled up to 25 g using a sterile aqueous solution containing 2% Tween 80 and homogenized by vortexing to achieve the first dilution step (1:100 dilution). This dilution was used for further dilution and spotting on agar.
(§3) For evaluation of spore germination rate prepare a 1:15000 dilution based on the 1:100 dilution achieved by multiple automated dilution (pipetting robot, 96 well plate). Afterwards 12×12 cm agar plates are taken and spotted with 10 times 5 μL of each sample using an automated 12-Channel pipet. Wait until liquid is soaked up by agar and transfer agar plate to an incubator and incubate at 23° C. for 16 hours. Open the plate and place it under the microscope. Randomly chose one area per spot and record the number of germinated and non-germinated spores that are within the designated field. At least 200 spores per sample need to be evaluated. If needed count more than one field per spot.

[1] = system: Beauveria bassiana spores; assay: Spore viability (germination rate) of Beauveria bassiana spores dispersed in fluid and stored at 30° C.; type: cell-based; conditions: Beauveria bassiana spores in fluid; for spore viability [%] after 2 w (14 d) / spore viability [%] after 5 w (35 d): storage at 30° C.
Protocol: as §1, with “Beauveria bassiana” for “I. fumosorosea”
as §2, with “sample are” for “sample were”
For these samples, an alternative dispersion/dilution method was applied where the oil phase is stripped from the spores first: 0.25 g or 250 μL of sample are weighted into a 2 mL Eppendorf tube, and 0.5 mL of 2% Tween 80 is added, and the mixture is transferred into an Eppendorf centrifuge where it is centrifuged for 1 min at 10.000 rpm. The supernatant (=upper oily phase) is discarded by using a pipette. […] 250 μL or 0.25 g of each sample are transferred into a sterile 50 mL Falcon tube. The tubes were filled up to 25 g using a sterile aqueous solution containing 2% Tween 80 and homogenized by vortexing to achieve the first dilution step (1:100 dilution). This dilution is used for further dilution and spotting on agar.
as §3, with “20°” for “23°”, “17” for “16”

| SMILES | spore viability [%] at day 1 (I. fumosorosea spores) [%] | spore viability [%] after 1 m (27 d) (I. fumosorosea spores) [%] | spore viability [%] after 7 m (210 d) (I. fumosorosea spores) [%] | spore viability [%] at day 1 [1] [%] | spore viability [%] after 2 w (14 d) [1] [%] | spore viability [%] after 5 w (35 d) [1] [%] |
| --- | --- | --- | --- | --- | --- | --- |
| CCCCOC(=O)CCCCC(=O)OCCCC [Adimoll DB, di-n-Butyl adipate] | 89.5 | 66.6 | 60.0 | 87 | 66.1 | 37.7 |
| CC(=O)OCC(COC(C)=O)OC(C)=O [Triacetin, Glycerin triacetate] | 90 | 84.0 | 69.1 | 89.3 | 58.6 | 31.6 |
